Reference: patent US20060270655A1, “Combination therapy for treating obesity or maintaining weight loss” (priority 2005, published 2006)

Assay: Food intake (12 hour spontaneous food intake, rats on high fat diet)
Format: in vivo
Conditions: male Sprague-Dawley rats
Procedure: The following functional assay was used to determine the effect of an intestinal-acting MTPi, a CB-1 antagonist, and the combination of an intestinal-acting MTPi and a CB-1 antagonist on food intake. The doses of the CB-1 antagonist used in the experiments were 10 mg/kg and 30 mg/kg. The doses of the intestinal-acting MTPi used in the experiments were 3 mg/kg and 10 mg/kg. The different dosages for each active were tested alone and in various combinations with each other as compared to a control (vehicle).
Male Sprague-Dawley rats (275-325 grams) were placed on a high fat diet (Research Diets, 45% kcal from fat). Animals were acclimated to an automated food intake assessment system overnight. Food weight data was collected by computer acquisition. Immediately prior to the start of the dark cycle on the first day, animals were given a PO (i.e., orally by mouth) dose of a gMTP inhibitor (Dirlotapide) or vehicle (self-emulsifying drug delivery system (SEDDS) formulation containing 20% Miglyol 812, 30% Triacetin, 20% Tween 80, and 30% Capmul MCM). On the second day, rats (n=5-10/group) were given a PO dose of a CB-1 antagonist (Compound A) or 0.5% methylcellulose 20 minutes prior to a second dose of Dirlotapide or vehicle. Food Intake was monitored until the following day. Data for each treatment group was compared by ANOVA (analysis of variance).

CCNC1(C(N)=O)CCN(c2ncnc3c2nc(-c2ccccc2Cl)n3-c2ccc(Cl)cc2)CC1 [Compound A, 1-[9-(4-chloro-phenyl)-8-(2-chloro-phenyl)-9H-purin-6-yl]4-ethylamino-piperidine-4-carboxylic acid amide]
12 hour Spontaneous Food Intake (10 mg/kg Compound A PO alone (plus SEDDS vehicle)): 16.3 ± 1.0 grams
12 hour Spontaneous Food Intake (30 mg/kg Compound A PO alone (plus SEDDS vehicle)): 12.6 ± 1.4 grams

CN(Cc1ccccc1)C(=O)[C@@H](NC(=O)c1cc2cc(NC(=O)c3ccccc3-c3ccc(C(F)(F)F)cc3)ccc2n1C)c1ccccc1 [Dirlotapide, (S)-N-{2-[benzyl(methyl)amino]-2-oxo-1-phenylethyl}-1-methyl-5-[4′-(trifluoromethyl)[1,1′-biphenyl]-2-carboxamido]-1H-indole-2 carboxamide]
12 hour Spontaneous Food Intake (3 mg/kg Dirlotapide PO alone (two daily doses, plus 0.5% methylcellulose)): 14.6 ± 0.8 grams
12 hour Spontaneous Food Intake (10 mg/kg Dirlotapide PO alone (two daily doses, plus 0.5% methylcellulose)): 11.3 ± 0.7 grams
